≈ marks a conversion by molar mass, not a printed value. Like-named read-outs stand apart in the source and are kept apart here.
Experiments:
[1] = target: T1, E. coli DXP synthase (Escherichia coli, UniProt P77488); assay: biochemical
T1 construct: made in house
Experimental: FIG. 4A, FIG. 4B, and FIG. 4C are charts showing competitive inhibition of DXP synthase by pentylacetylphosphonate (PentAP; FIG. 4A), hexylacetylphosphonate (HexAP; FIG. 4B), and octylacetyl phosphonate (OctAP; FIG. 4C). Inhibition assays were performed as previously described^[18], [40]). […] Pyruvate concentration was varied from 12-240 μM and acetylphosphonate concentration was varied: 0 μM (∘), 10 μM (●), 25 μM (□) and 50 μM (▪). Experiments were performed in triplicate, and data were subjected to non-linear regression analysis for Ki determinations (GraphPad Prism). Representative Lineweaver-Burk plots (GraFit from Erithacus Software) are shown for PentAP (FIG. 4A), HexAP (FIG. 4B) and OctAP (FIG. 4C) to illustrate the competitive inhibition mode with respect to pyruvate.
Inhibition of DXP synthase was measured as previously described^[13], [18]. […] Acetylphosphonate concentration was varied from 0 to 250 μM. […] Experiments were performed in triplicate for BAP and in duplicate for iPrAP
In order to evaluate the inhibitory activity of BnAP against DXP synthase, a continuous spectrophotometric coupled assay was used to measure formation of DXP by monitoring IspC consumption of NADPH (340 nm). ^[2] DXP synthase reaction mixtures (previously described) including BnAP (15, 30, and 60 μM), IspC (1 μM) and NADPH (100 μM) were pre-incubated at 37° C. for 5 minutes. Initial rates were measured after the reaction was initiated by the addition of DXP synthase. Inhibition of the coupling enzyme (IspC) by BnAP was not observed up to 1.5 mM. Experiments were performed in triplicate. Double reciprocal analysis of data was carried out using GraFit version 7 from Erithacus Software.

[2] = test system: wild-type K-12 E. coli (ATCC: MG1655); assay: Antimicrobial activity against E. coli K-12 grown in CAMHB; assay type: cell-based
Experimental: FIG. 7A and FIG. 7B are charts showing representative growth curves are shown for BAP (FIG. 7A) and BnAP (FIG. 7B). Alkylacetylphosphonates exert dose-dependent delay in E. coli K-12 (MG 1655) growth in CAMHB. Fractional growth (measured at 16 h, blue arrow) was determined relative to the no drug control. Standardized cell cultures were exposed to increasing concentrations of acetylphosphonate, and growth was determined by measuring the OD600 for a period of 16 hours. Acetylphosphonate concentration was varied from 0-5 mM: No drug (light blue), 0.08 mM (orange), 0.16 mM (gray), 0.31 mM (yellow), 0.63 mM (blue), 1.25 mM (green), 2.5 mM (dark blue) and 5.0 mM (brown).
Thus, BnAP, PentAP, HexAP and OctAP, also shown to inhibit DXP synthase, were evaluated for antimicrobial activity against wild-type K-12 E. coli (ATCC: MG1655) grown in rich medium (CAMHB).

[3] = test system: E. coli K-12 (BW25113); assay: Antimicrobial activity against E. coli K-12 grown in M9 minimal medium; assay type: cell-based; settings: M9 minimal medium; preliminary
Text: The product of DXP synthase, DXP, lies at a metabolic branchpoint. DXP serves as precursor not only for essential isoprenoids, but also is essential to central metabolism as a precursor to both thiamin diphosphate and pyridoxal phosphate. Thus, evaluation of antimicrobial activity of DXP synthase inhibitors in the standard, rich growth medium (CAMHB) which contains rescuing metabolites, likely underestimates the antimicrobial activities of these agents. Standard in vitro culture conditions may have poor predictive value for these agents in vivo; access to most nutrients is thought to be more difficult from the host than in nutrient rich media.

[4] = target: T1, E. coli DXP synthase; settings: Table 5, value marked with reference superscript (previously reported); read-out: Ki^DXPS; cited from earlier work
[5] = target: T2, Porcine pyruvate dehydrogenase (PDH E1 subunit) (Sus scrofa, UniProt P29804); settings: Table 5, value marked with reference superscript (previously reported); cited from earlier work
T2 construct: Ki^PDH; μM); Ki^PDH
T2 sequence (P29804 1-390): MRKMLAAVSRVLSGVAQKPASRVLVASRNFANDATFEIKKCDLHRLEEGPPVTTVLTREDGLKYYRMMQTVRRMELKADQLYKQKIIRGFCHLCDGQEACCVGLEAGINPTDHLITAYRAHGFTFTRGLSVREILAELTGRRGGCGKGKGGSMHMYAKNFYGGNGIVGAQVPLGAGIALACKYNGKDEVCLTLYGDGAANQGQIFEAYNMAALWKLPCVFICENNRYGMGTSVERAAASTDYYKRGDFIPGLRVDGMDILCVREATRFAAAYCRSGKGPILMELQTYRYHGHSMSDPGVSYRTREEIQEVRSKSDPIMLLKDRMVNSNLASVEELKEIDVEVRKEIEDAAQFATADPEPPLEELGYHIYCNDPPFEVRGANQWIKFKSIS

[6] = target: Porcine pyruvate dehydrogenase (PDH E1 subunit); settings: Table 5, value marked with reference superscript; cited from earlier work
[7] = target: T3, E. coli DXP synthase (DXPS) (Escherichia coli, UniProt P77488); assay type: biochemical; settings: 10-20 mM pyruvate, pH 8.0, 10% DMSO, 37° C., average ± SEM
T3 construct: made in house
T3 sequence (P77488 1-620): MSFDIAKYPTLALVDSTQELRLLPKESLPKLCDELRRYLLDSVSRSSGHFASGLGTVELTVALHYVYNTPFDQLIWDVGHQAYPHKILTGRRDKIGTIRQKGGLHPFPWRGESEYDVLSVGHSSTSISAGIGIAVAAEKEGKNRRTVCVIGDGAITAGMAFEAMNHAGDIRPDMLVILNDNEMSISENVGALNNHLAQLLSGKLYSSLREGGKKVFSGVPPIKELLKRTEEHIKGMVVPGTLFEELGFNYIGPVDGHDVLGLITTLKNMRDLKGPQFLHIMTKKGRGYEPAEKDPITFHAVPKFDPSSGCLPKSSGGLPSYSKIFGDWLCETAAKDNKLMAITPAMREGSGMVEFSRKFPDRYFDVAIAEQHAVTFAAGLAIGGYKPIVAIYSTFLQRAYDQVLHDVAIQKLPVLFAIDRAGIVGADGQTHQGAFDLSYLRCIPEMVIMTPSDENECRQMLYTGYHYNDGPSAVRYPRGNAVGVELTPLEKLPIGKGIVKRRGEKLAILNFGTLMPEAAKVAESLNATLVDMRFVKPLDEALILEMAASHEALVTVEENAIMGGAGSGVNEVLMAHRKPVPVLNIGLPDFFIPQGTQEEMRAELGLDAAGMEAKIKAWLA
Experimental: Reaction mixtures containing 100 mM HEPES, pH 8.0, 2 mM MgCl2, 5 mM NaCl, 1 mM ThDP, 1 mg/mL BSA, 10-20 mM pyruvate, 10% DMSO, 0.5 mM 5 mM nitroso substrate were pre-incubated at 37° C. for 5 min. […] Aliquots of enzymatic mixture were removed at various time intervals and quenched into an equal volume of cold methanol. Quenched mixtures were incubated on ice for 20 minutes. Precipitated proteins were removed by centrifugation, and the supernatant was analyzed by HPLC with UV detection using the following conditions: Flow rate=3 mL/min; Solvent A: 100 mM NH4OAc, pH 4.6; Solvent B: acetonitrile; Method: 0-100% B over 10 min. New products formed were extracted from the supernatant using ethyl acetate (3×). […] Products were subsequently characterized by mass spectrometry.
Reaction mixtures containing 100 mM HEPES, pH 8.0, 2 mM MgCl2, 5 mM NaCl, 1 mM ThDP, 1 mg/mL BSA, 10-20 mM pyruvate, 10% DMSO v/v, and 10-300 μM nitroso substrate were pre-incubated at 37° C. for 5 min. […] Substrate concentration as a function of time was determined from absorbance values using Beer's Law. Initial reaction rates were determined from the linear range of the reaction progress curve, usually within 1-3 min. Data analysis to determine kcat and Km for each alternative substrate was carried out using GraFit version 7 from Erithacus Software.

[8] = test system: porcine PDH E1 subunit; assay type: biochemical
Experimental: Reaction mixtures containing 100 mM HEPES, pH 8.0, 2 mM MgCl2, 5 mM NaCl, 1 mM ThDP, 1 mg/mL BSA, 10-20 mM pyruvate, 10% DMSO v/v, and 10-300 μM nitroso substrate were pre-incubated at 37° C. for 5 min. Enzymatic reactions were initiated by addition of 0.5-2 μM DXP synthase (or 0.1 units/ml PDH) and monitored spectrophotometrically by measuring the rate of disappearance of the nitroso substrate at its corresponding λmax. Substrate concentration as a function of time was determined from absorbance values using Beer's Law. Initial reaction rates were determined from the linear range of the reaction progress curve, usually within 1-3 min. Data analysis to determine kcat and Km for each alternative substrate was carried out using GraFit version 7 from Erithacus Software.

[9] = target: T4, DXP synthase (Escherichia coli, UniProt P77488); assay: Inhibition of DXP formation by nitroso substrates (HPLC-based assay); assay type: biochemical, E. coli; settings: 30 μM D-GAP, 80 μM pyruvate, 37° C.; average ± SEM
T4 construct: made in house
T4 sequence (P77488 1-620): T3 sequence (P77488 1-620)
Experimental: Enzyme reactions were initiated by addition of 0.1 μM DXP synthase. Aliquots (150 μL) of the enzymatic mixture were removed between 0.5 and 3 minutes and quenched into ice-cold methanol (150 μL). Precipitated protein was removed by centrifugation, and the supernatant was diluted in an equal volume of water. The nitroso substrate was removed by extraction into acetonitrile (3×), using a previously described freeze-extraction technique. ^[32] […] The derivatization mixtures were analyzed by HPLC as previously described. ^[19] To determine initial reaction rates in the presence of varying inhibitor concentration, the D,L-GAP and DXP hydrazone HPLC peak areas were measured, and the product concentration was determined as a percent of total peak area and plotted against reaction time. Initial rates GraFit version 7 from Erithacus Software was utilized to generate IC50 curves.

[10] = target: T5, yeast TK (Saccharomyces cerevisiae, UniProt P23254); settings: ref [26]; cited from earlier work
T5 sequence (P23254 1-680): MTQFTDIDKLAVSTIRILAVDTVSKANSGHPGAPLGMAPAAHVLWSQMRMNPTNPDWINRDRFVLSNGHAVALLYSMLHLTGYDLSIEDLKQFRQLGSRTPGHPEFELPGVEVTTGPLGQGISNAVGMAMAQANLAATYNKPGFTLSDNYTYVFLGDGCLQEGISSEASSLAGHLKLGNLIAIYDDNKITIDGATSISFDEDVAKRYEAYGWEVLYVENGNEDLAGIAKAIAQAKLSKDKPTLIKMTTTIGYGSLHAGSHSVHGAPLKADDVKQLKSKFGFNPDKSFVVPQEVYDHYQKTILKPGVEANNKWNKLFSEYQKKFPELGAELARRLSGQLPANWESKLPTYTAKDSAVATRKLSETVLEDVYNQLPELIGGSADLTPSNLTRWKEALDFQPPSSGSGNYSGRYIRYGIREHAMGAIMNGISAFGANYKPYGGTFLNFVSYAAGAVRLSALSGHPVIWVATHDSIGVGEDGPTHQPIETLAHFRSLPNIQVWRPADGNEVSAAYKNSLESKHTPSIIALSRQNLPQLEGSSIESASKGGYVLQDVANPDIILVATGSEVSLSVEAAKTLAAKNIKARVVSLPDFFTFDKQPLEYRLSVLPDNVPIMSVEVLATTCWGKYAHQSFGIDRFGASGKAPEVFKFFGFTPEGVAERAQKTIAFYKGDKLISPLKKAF

CCCCOP(=O)(O)C(C)=O [BAP, butylacetylphosphonate, reference compound]
IC50 ([1]; pyruvate 95 μM, D-GAP 56 μM, error 95% Confidence Interval, read-out: IC50 (DXP synthase)): 24 ± 4 µM | antimicrobial effects against E. coli (MG1655) ([2]; FIG. 10, in words): dose-dependent inhibition | minimum inhibitory concentration (MIC90) ([2]; rich medium (CAMHB), 16 h): 2500 µM (≈ 450 µg/mL) | MIC [3]: 3100 µM (≈ 558 µg/mL) | Ki [4]: 5.6 ± 0.8 µM | Ki [5]: 335 ± 8 µM | Ki^PDH/Ki^DXPS [6]: 60

COc1ccc(CCOP(=O)([O-])C(C)=O)cc1.[Li+] [Compound 4]
kcat ([7]; acceptor substrate turnover): 0.015 ± 0.0017 s⁻¹ | Km ([7]; acceptor substrate): 54 ± 13 µM | Km ([8]; 10-20 mM pyruvate, pH 8.0, 37° C., average ± SEM): 408 ± 60 µM | Km^PDH/Km^DXPS ([8]; ratio porcine PDH E1 vs E. coli DXPS): 7.5 | IC50 [9]: 844 ± 170 µM | IC50 ([1]; Table 4, read-out: In vitro DXP syn IC50): 194 µM | substrate usage by yeast TK [10]: not a substrate
